The target in test [1] is T1, D(1A) dopamine receptor (Homo sapiens, UniProt P21728). Put plainly: Compound was evaluated for the binding affinity towards Dopamine receptor D1 by displacement of […].
In test [2] the target is T2, 5-hydroxytryptamine receptor 2C (Homo sapiens, UniProt P28335).
T2 sequence (P28335 whole entry): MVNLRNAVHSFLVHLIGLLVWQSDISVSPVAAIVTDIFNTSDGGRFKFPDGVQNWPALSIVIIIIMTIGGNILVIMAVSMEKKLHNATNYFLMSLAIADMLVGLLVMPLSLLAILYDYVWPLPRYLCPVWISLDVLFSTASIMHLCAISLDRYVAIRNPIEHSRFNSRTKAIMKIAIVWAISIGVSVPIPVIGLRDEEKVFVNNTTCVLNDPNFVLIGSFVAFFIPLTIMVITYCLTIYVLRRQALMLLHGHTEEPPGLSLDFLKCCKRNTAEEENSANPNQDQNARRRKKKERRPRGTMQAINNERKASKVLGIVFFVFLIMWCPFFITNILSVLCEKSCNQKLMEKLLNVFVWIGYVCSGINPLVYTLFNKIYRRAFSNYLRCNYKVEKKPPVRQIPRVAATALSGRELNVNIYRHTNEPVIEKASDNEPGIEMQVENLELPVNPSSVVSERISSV
Put plainly: Compound was evaluated for the binding affinity towards 5-hydroxytryptamine 2C receptor by displacement of [3H]-Ketanserin.

The target in test [3] is T3, 5-hydroxytryptamine receptor 1A (Homo sapiens, UniProt P08908).
T3 sequence (P08908 whole entry): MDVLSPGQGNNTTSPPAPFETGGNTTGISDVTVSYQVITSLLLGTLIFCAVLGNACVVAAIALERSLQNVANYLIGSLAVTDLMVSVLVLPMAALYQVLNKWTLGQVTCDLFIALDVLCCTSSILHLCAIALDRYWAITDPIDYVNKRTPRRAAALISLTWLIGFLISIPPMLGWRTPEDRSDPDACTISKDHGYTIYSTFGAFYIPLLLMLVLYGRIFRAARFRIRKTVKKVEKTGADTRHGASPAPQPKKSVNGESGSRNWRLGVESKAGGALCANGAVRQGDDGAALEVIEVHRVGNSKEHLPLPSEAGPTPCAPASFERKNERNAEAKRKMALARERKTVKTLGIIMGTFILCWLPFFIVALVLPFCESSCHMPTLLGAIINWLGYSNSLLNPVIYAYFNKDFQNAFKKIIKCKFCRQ
Put plainly: Binding affinity towards 5-hydroxytryptamine 1A receptor by displacement of [3H]8-OH-DPAT. (In general: In a radioligand displacement assay an active substance lowers the binding of a labelled ligand.)

Test [4] deals with T4, D(2) dopamine receptor (Homo sapiens, UniProt P14416). Put plainly: Binding affinity towards Dopamine receptor D2 by displacement of [3H]-Raclopride.
Test [5] addresses T5, 5-hydroxytryptamine receptor 1B (Homo sapiens, UniProt P28222). Put plainly: Binding affinity towards 5-hydroxytryptamine 1B receptor by displacement of [3H]5-HT.
Test [6] concerns the target 5-hydroxytryptamine receptor 2A (Homo sapiens, UniProt P28223). Put plainly: Binding affinity towards 5-hydroxytryptamine 2A receptor by displacement of [3H]ketanserin.
Test [7] deals with T4, D(2) dopamine receptor. Put plainly: Compound was evaluated for the binding affinity towards Dopamine receptor D2 by displacement of […].
Test [8] addresses T1, D(1A) dopamine receptor. Put plainly: Binding affinity towards Dopamine receptor D1 by displacement of [3H]SCH-23,390.
In test [9] the target is T5, 5-hydroxytryptamine receptor 1B. Put plainly: Compound was evaluated for the binding affinity towards 5-hydroxytryptamine 1B receptor by displacement of […].
Test [10] has as its target T1, D(1A) dopamine receptor. Put plainly: Compound was evaluated for the Dopamine receptor D1 by displacement of [3H]SCH-23390.

T4 sequence (P14416 whole entry): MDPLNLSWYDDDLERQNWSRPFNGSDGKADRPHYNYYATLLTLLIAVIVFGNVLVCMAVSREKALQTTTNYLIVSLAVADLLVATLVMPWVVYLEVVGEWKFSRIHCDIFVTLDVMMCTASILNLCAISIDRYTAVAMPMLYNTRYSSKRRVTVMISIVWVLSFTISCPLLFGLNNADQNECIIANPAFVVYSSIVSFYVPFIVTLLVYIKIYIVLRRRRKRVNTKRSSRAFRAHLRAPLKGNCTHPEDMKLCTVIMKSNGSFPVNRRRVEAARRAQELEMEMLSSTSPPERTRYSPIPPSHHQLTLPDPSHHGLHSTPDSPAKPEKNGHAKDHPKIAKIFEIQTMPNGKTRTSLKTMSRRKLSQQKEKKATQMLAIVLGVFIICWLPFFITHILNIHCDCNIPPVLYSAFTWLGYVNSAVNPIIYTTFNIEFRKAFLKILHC
Chain of 5-hydroxytryptamine receptor 2A (P28223 whole entry): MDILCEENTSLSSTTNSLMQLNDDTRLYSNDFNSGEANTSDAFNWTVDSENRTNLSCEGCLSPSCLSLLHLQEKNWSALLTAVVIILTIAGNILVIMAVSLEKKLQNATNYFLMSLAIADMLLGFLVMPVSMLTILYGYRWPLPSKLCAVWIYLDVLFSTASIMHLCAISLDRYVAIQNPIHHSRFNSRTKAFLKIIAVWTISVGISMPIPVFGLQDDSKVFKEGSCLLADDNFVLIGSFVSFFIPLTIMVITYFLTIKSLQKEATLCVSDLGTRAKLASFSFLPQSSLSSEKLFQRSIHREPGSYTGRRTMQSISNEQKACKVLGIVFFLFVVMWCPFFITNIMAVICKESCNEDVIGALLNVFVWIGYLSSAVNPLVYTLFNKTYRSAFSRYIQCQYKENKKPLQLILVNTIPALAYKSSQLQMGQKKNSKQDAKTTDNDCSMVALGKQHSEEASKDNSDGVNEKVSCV
T1 sequence (P21728 whole entry): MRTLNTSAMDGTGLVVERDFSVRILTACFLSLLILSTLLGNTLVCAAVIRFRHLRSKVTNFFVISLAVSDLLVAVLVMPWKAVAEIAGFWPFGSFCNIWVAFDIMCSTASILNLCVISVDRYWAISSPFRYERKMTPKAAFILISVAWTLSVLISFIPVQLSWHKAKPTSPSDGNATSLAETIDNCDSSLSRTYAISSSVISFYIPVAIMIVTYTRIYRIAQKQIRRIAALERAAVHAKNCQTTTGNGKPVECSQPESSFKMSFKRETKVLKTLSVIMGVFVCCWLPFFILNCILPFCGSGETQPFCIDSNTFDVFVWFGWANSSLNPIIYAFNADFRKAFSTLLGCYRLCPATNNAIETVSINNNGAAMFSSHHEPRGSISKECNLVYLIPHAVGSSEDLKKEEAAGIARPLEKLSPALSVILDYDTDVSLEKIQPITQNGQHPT
T5 sequence (P28222 whole entry): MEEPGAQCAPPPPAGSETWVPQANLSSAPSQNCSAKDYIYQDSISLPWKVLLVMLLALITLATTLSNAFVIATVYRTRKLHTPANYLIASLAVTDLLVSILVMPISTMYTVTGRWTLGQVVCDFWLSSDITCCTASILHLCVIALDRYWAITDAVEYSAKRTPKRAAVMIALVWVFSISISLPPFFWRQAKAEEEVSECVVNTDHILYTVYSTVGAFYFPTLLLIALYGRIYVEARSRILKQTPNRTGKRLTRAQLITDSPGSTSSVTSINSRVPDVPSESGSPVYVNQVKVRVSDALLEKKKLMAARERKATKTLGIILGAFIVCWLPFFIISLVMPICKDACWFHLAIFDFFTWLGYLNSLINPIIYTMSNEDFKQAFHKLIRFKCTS

As usually defined, the IC50 is the midpoint of a concentration-inhibition curve. Low readings indicate greater potency, high ones weaker potency. Consider `CCCN(CCC)CC1COc2cccc(OC)c2C1` (stereo unspecified), for which the IC50 was 34.7 µM on D(1A) dopamine receptor [1]; 33.9 µM in [2]; 234 nM in test [3]; 2570 nM at D(2) dopamine receptor [4]; 22.9 µM in [5]; 15.8 µM in test [6].
Turning to `COc1cccc2c1CC1(CCCN1CCCCN1C(=O)CC3(CCCC3)CC1=O)CO2` (stereo unspecified), the IC50 on D(2) dopamine receptor [7] is 1100 nM; on D(1A) dopamine receptor [8], more than 10 µM; in test [3], 10.7 nM; in [9] it was 6.61 µM; in [5], 3.8 µM.
Take `CCCN1CCN(CCCCN2C(=O)CC3(CCCC3)CC2=O)CC12COc1cccc(OC)c1C2` (stereo unspecified): the IC50 in [3] was 15800 nM; in test [5], 1.58 µM; in test [6] it was 11.2 µM.
As to `O=C1CC2(CCCC2)CC(=O)N1CCCCNCC1COc2ccccc2C1` (stereo unspecified), the IC50 is 3.31 µM at D(1A) dopamine receptor [8]; 6.31 nM in test [3]; 67.6 nM at D(2) dopamine receptor [4]; 6.92 µM in [5]; 0.0562 µM in test [6].
With `CCCN(CCCCN1C(=O)CC2(CCCC2)CC1=O)C1COc2cccc(OC)c2C1` (stereo unspecified), the IC50 was 39.8 µM on D(1A) dopamine receptor [10], 10 nM at D(2) dopamine receptor [4] and 1 µM in test [6].
In the case of `CCCN1CCN(Cc2ccccc2)CC12COc1cccc(OC)c1C2` (stereo unspecified), the IC50 was 15800 nM in [3], 35.5 µM in test [5] and 24.5 µM in [6].
For `CCCN(CCC)CC1(N(CCC)CCC)COc2cccc(OC)c2C1` (stereo unspecified), the IC50 in test [3] was 4170 nM; in test [5], 138 µM; in [6], 214 µM.
Regarding `COc1cccc2c1CC(CNCCCCN1C(=O)CC3(CCCC3)CC1=O)CO2` (stereo unspecified), the IC50 at D(1A) dopamine receptor [8] is 0.832 µM; in test [3] it was 0.129 nM; on D(2) dopamine receptor [4] it was 29.5 nM; in test [5], 3.02 µM; in [6], 0.049 µM.
Take `CCCN(CCCCN1C(=O)CC2(CCCC2)CC1=O)CC1COc2cccc(OC)c2C1` (stereo unspecified): the half-maximal inhibitory concentration (IC50) at D(1A) dopamine receptor [8] is 13.8 µM; in [3] it was 513 nM; at D(2) dopamine receptor [4] it was 1780 nM; in test [5], 7.41 µM; in test [6] it was 7.76 µM.
`CCCN1CCN(CCC)C2(COc3cccc(OC)c3C2)C1` (stereo unspecified): the concentration for half-maximal inhibition (IC50) in test [3] is 3020 nM; in [5] it was more than 100 µM; in test [6], 10 µM.

The values are drawn from ChEMBL document CHEMBL1129704, “Synthesis, biological activity and quantitative structure-activity relationships of N-substituted-3,4-dihydro-2H-1-benzopyran derivatives” (Bioorg Med Chem Lett, 1996).
